Where “and” joins values, the source holds several entries; their conditions need not be identical. Identical values can stand only once.
What was measured:
[1] = biological target: T1, WGR domain-nucleosome complexes (Homo sapiens, UniProt Q9UGN5); assay: spFRET microscopy of WGR domain-nucleosome complexes; conditions: Np nucleosomes, WGR domain plus 2 mM Zn2+
T1 construct: WGR domain of PARP2 (residues 77–220) into pET-15b-TEV expression vector; 6xHis (pET-15b-TEV) (N, cleaved yes); made in house; host or cells: Escherichia coli Rosetta2 (DE3) pLysS (WGR)
Description: In the study of nucleosome-PARP2 interactions, nucleosomes (1–2 nM) were incubated with PARP2 (12.5–200 nM) in buffer A (50 mM Tris-HCl pH 7.5; 40 mM NaCl; 0.5 mM β-mercaptoethanol (β-ME); 0.1% NP40) at 25 °C for 30 min. When indicated, buffer A was supplemented with 50 µM – 5 mM ZnCl2, 5 mM CaCl2 or 5 mM MgCl2. To study the stability of Zn^2+-PARP2-nucleosome complexes, PARP2-nucleosome complexes that have been formed for 30 min in buffer A containing 50 nM PARP2 and 0.15 mM Zn^2+ ions were mixed with EDTA (10 mM) and incubated for 15 min. In the studies of PARylation, NAD+ (0.5–10 µM) was mixed with nucleosomes (1–2 nM) and PARP2 (100 nM) in buffer A and incubated for 45 min at 25 °C.
spFRET measurements in solution were performed as described previously. Each measured single nucleosome was characterized by FRET between Cy3 and Cy5 labels calculated as a proximity ratio (EPR):1 [drawing 1]
Where I3 and I5 are fluorescence intensities of Cy3 and Cy5, respectively, and coefficients 0.19 and 0.81 provide correction for the spectral cross-talk between Cy3 and Cy5 detection channels. […] Relative frequency distributions of nucleosomes by EPR values, i.e. EPR profiles, (2000–5000 nucleosomes per experiment; 3 independent experiments) were plotted and further analyzed as a superposition of several normal (Gaussian) distributions for nucleosomes or nucleosome-PARP2 complexes. […]

WGR domain of PARP2 = biological target: T2, WGR domain of PARP2 (Homo sapiens, UniProt Q9UGN5); assay: Circular dichroism spectroscopy of the WGR domain (BeStSel secondary structure analysis); set-up: content of a-helix in the WGR domain / content of b-sheet in the WGR domain / content of turn in the WGR domain / content of random coil in the WGR domain: unit not given here
T2 construct: WGR domain of PARP2 (residues 77–220) into pET-15b-TEV expression vector; 6xHis (pET-15b-TEV) (N, cleaved yes); made in house; host or cells: Escherichia coli Rosetta2 (DE3) pLysS
T2 sequence (Q9UGN5 77-220): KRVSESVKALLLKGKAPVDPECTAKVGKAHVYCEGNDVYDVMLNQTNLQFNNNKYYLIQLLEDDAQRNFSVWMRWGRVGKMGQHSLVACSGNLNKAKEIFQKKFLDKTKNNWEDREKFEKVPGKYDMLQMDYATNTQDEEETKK
Description: CD spectra of proteins were recorded within the 190-250 nm spectral range with 0.2 nm step using Jasco-810 spectrophotometer (Jasco, Japan) and the quartz […]® cuvette of 0.1 mm thickness (Hellma, Germany. Secondary structure analysis was performed using BeStSel webserver. To improve the reliability of the analysis, the content of canonical secondary structures of various types was predicted for 3-6 independent measurements, and the values were averaged. The statistical significance of the secondary structure difference was determined using the multiple t-test.

PARP2 [2] = biological target: T3, PARP2 (Mus musculus, UniProt O88554); assay: Tryptophan fluorescence spectroscopy of PARP2 with Zn2+; type: binding; set-up: Recombinant mouse full-length PARP2 was obtained in the baculovirus expression system; made in house; host or cells: Sf9 insect cells (baculovirus); gift of Prof; O. Lavrik; conditions: PARP2 0.5 µM, Zn2+ 377 µM
Description: Fluorescence spectra of Trp residues were measured in the 300–450 nm spectral range at the 270 nm excitation wavelengths using the Cary Eclipse spectrofluorometer (Varian/Agilent, USA).
Fluorescence of PARP2 was measured at 0.5 µM in a buffer containing 7% glycerin, 33 µM HEPES (pH 8.0), 75 mM NaCl, 89 µM EDTA, 27 µM ZnCl2, 1.5 µM TCEP. A solution of PARP2 was complemented with ZnCl2 to 377 µM.

PARP2 [3] = biological target: T3, PARP2; assay: Western blot analysis of NAD+-dependent PARylation by PARP2 in PARP2-nucleosome complexes; type: biochemical; set-up: Recombinant mouse full-length PARP2 was obtained in the baculovirus expression system; made in house; host or cells: PARP2: Sf9 insect cells (baculovirus), gift of Prof; O. Lavrik; nucleosomes assembled in house; conditions: Mg2+ 5 mM or Zn2+ 0.3 mM; PARP2 100 nM, nucleosomes 3 nM, NAD+ 0-5 µM
Description: Probes were subjected to electrophoresis in 4–12% bis-Tris gradient gel in the NuPAGE™ MES SDS Running Buffer at 130 V. […] The membrane was incubated for 60 min in the PBS-T solution supplemented with the 5% skimmed milk. Then the membrane was incubated with mouse monoclonal antibodies 10 H followed by incubation with the secondary anti-mouse antibodies conjugated with horseradish peroxidase (Bio-Rad, Hercules, CA, USA). The washing procedure was carried out after each step of incubation. Immunodetection was performed using the Super Signal West Pico Chemiluminescent Substrate (Thermo Fisher Scientific, Waltham, MA, USA) for 3 min. The Western blot experiments were performed in three independent repetitions.

[4] = 0.5 mM ion, independent measurements

[Cl-].[Cl-].[Zn+2] [Zn2+, ZnCl2]
EPR maximum of the new peak in the EPR profile [1]: 0.4
effect of ions on the structure of the WGR domain (CD) (WGR domain of PARP2): significantly changes
content of b-sheet in the WGR domain (WGR domain of PARP2; [4]): 26.6 and 28 and 25.5 and 34.1 and 29.7
content of random coil in the WGR domain (WGR domain of PARP2; [4]): 48.2 and 46 and 53.4 and 46.2
content of turn in the WGR domain (WGR domain of PARP2; [4]): 15.4 and 13.9 and 14.7 and 15.1 and 13.3
intensity of fluorescence spectrum of tryptophan residues of PARP2 after addition of ions (PARP2 [2]): increased
effect of ions on efficiency of PARP2-mediated PARylation (PARP2 [3]): decrease

Reference: article PMC12209172, “Poly(ADP-ribose)polymerase 2 is zinc-dependent enzyme and nucleosome reorganizer” (Cellular and Molecular Life Sciences: CMLS, 2025)
